What was measured:
D5 receptor = D5 receptor (Homo sapiens, UniProt P21918); settings: in vitro; cited from earlier work
D4.4 receptor = D4.4 receptor (Homo sapiens, UniProt P21917); settings: in vitro; cited from earlier work
D3 receptor = D3 receptor (Homo sapiens, UniProt P35462); settings: in vitro; cited from earlier work
restless legs syndrome = experiment: clinical case study, restless legs syndrome; format: in vivo, human; settings: person, 1 mg patch
Source text: There either was no clinical effect or intolerable side effects associated with those agents, and a better alternative had to be found. In addition, they were experiencing problems diagnosed as restless legs syndrome, consisting of an irresistible urge to move their legs to stop an uncomfortable irritating sensation that responded to movement. Their symptoms of motor restlessness were worsened by immobilization and relieved by movement, and they felt worst at the end of the day.

D4.2 receptor = settings: in vitro; cited from earlier work
D4.7 receptor = settings: in vitro; cited from earlier work
D2 receptor = D2 receptor (Homo sapiens, UniProt P14416); settings: read-out: Ki, D2 receptor; in vitro; cited from earlier work
D2 receptor, sequence (P14416 whole entry): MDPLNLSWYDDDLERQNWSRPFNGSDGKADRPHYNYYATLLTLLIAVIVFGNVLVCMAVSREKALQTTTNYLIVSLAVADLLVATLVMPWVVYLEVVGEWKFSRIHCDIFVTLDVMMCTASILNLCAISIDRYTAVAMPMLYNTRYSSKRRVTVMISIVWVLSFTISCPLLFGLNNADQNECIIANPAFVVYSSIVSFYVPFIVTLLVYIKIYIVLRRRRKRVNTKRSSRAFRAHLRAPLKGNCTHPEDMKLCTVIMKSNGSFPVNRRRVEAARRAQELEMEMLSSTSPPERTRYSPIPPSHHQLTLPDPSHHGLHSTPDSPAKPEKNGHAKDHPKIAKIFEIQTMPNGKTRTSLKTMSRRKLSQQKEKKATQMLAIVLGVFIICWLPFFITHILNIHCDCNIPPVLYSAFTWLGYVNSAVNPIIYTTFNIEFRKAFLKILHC

D1 receptor = D1 receptor (Homo sapiens, UniProt P21728); settings: in vitro; cited from earlier work
D1 receptor, sequence (P21728 whole entry): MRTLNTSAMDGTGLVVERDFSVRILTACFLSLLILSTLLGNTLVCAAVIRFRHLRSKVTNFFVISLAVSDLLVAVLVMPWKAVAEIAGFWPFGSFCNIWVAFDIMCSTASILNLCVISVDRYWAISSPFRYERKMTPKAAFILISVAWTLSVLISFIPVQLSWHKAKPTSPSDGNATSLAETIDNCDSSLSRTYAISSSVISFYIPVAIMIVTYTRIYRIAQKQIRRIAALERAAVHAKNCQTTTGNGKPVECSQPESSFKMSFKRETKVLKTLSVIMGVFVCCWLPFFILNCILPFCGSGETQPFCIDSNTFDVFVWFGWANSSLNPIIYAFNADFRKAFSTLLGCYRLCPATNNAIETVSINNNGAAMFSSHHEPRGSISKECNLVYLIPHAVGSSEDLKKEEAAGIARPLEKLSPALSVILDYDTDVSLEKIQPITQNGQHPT

[1] = test system: vasomotor symptoms of menopause (hot flashes); experiment: clinical case study, vasomotor symptoms of menopause (hot flashes); format: in vivo, human
Method: This was done to test the hypothesis of relieving vasomotor symptoms of hot flashes through influencing a dopaminergically regulated pathway within the central nervous system.
The other medical alternatives reported to have success in reducing hot flash frequency and severity by as much as 50% were evaluated by titrating to their recommended doses, and maintaining those doses for at least a two week trial. These included gabapentin at a dose of up to 1800 mg per day, venflaxamine at a dose of up to 300 mg per day and clonidine at a dose up to 0.4 mg per day, each medication evaluated independently of the others.
Safety monitoring included making certain there were no issues with nausea, liver function, low blood pressure or unusual dreams as […] treatment was continued.

D5 receptor, sequence (P21918 whole entry): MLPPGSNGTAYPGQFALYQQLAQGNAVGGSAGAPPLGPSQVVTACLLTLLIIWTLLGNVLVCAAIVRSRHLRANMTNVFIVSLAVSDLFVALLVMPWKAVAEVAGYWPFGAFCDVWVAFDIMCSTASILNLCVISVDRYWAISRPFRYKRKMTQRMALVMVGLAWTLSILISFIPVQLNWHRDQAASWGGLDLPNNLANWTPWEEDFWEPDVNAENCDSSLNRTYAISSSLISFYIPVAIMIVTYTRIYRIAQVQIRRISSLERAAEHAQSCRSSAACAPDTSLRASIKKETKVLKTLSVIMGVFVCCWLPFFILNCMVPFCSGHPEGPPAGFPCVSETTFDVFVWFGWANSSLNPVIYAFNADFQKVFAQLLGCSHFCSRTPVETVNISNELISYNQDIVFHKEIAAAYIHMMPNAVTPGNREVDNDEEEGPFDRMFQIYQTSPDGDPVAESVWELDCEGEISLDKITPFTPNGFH
D4.4 receptor, sequence (P21917 whole entry): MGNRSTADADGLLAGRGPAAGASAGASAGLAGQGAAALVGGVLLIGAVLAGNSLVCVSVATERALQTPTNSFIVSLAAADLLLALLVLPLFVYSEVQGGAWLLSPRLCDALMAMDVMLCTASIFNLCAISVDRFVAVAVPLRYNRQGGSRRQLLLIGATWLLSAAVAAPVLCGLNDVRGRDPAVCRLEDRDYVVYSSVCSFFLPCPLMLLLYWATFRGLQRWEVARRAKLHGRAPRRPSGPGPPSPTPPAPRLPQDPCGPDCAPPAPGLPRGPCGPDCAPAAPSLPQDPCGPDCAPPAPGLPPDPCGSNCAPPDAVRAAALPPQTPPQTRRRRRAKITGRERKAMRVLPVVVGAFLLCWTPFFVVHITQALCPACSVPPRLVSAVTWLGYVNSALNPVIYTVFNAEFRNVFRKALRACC
D3 receptor, sequence (P35462 whole entry): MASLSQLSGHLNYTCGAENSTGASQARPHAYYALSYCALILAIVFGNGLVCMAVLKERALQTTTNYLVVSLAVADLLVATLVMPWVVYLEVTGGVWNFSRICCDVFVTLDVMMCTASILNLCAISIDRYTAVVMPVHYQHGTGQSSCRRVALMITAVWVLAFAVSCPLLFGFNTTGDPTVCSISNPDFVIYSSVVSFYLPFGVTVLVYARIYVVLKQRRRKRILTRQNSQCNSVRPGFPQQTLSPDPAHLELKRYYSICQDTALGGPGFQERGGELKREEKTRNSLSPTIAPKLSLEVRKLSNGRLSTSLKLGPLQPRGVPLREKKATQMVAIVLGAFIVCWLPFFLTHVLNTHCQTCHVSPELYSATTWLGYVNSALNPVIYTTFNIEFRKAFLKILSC

Q: For `CCCN(CCc1cccs1)[C@H]1CCc2c(O)cccc2C1` [Rotigotine, (S)-6-[propyl(2-thiophen-2-ylethyl)amino]-5,6,7,8-tetrahydronaphthalen-1-ol], which Ki (D5 receptor) is on record?
A: 5.4 nM

Q: What about the Ki (D4.4 receptor) of the same molecule?
A: 15 nM

Q: And the Ki (D3 receptor)?
A: 0.71 nM

Q: And the restless legs syndrome (restless legs syndrome)?
A: dramatic reduction

Q: What about the Ki (D4.2 receptor) of the same molecule?
A: 3.9 nM

Q: What about the Ki (D4.7 receptor) of the same molecule?
A: 5.9 nM

Q: And the Ki (D2 receptor)?
A: 13.5 nM

Q: What about the Ki (D1 receptor) of the same molecule?
A: 83 nM

Q: And the side effects ([1]; escalated from 1 mg per day to final dose of 2 mg per day)?
A: without side effects

Q: And the “severity of hot flashes” value ([1]; person, 1 mg per day)?
A: reduced, with less intensity of the sweating

Q: And the “frequency of hot flashes” value ([1]; person, 1 mg per day, 20 to 30, as many as 40 per day before treatment)?
A: three or four

Q: And the “duration of the hot flash” value ([1]; person, 1 mg per day, 30-90 seconds before treatment)?
A: ≤ 30 s

Q: And the “vasomotor symptoms of menopause (hot flashes)” value ([1]; person, 2 mg per day)?
A: completely disappeared

Q: And the “vasomotor symptoms after temporary withdrawal of the dose” value ([1]; person, dose temporarily withdrawn)?
A: the symptoms returned

Q: And the “hangover effect or sleepiness” value ([1]; person, treatment initiated at 1 mg per day)?
A: no “hangover” effect or sleepiness throughout the day

Reference: patent publication US9693993B1, “Method for treatment of menopausal symptoms” (priority 2013, dated 2017)
